Source: ChEMBL document CHEMBL3431459, “Roche carnitine palmitoyltransferase modulator screening data (supplementary data associated with the publication CHEMBL2216752)”

Assays:
[1] = target: T1, Carnitine O-palmitoyltransferase 1, muscle isoform (Homo sapiens, UniProt Q92523); assay: SUPPLEMENTARY: Inhibition of Carnitine palmitoyltransferase 1, muscle isoform; design: species or system Muscle tissue
T1 sequence (Q92523 whole entry): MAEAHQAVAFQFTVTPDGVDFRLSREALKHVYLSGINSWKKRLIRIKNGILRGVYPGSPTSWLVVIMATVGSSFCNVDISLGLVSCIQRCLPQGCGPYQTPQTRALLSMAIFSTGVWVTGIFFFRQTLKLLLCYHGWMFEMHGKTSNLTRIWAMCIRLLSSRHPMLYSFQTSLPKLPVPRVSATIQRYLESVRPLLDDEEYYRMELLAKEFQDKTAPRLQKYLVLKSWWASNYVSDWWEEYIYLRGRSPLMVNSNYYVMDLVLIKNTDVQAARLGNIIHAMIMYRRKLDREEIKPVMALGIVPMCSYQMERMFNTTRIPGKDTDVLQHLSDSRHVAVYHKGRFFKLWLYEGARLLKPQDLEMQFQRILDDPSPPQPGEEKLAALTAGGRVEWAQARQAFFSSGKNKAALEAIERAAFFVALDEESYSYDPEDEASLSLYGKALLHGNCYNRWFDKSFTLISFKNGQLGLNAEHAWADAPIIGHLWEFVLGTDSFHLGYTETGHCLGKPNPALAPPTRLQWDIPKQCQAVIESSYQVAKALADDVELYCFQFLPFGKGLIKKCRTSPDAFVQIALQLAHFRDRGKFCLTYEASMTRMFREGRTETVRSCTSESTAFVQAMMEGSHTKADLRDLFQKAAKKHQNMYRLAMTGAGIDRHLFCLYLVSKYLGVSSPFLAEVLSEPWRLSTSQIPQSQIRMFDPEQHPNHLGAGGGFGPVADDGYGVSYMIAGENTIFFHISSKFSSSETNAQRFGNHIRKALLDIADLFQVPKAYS

[2] = target: T2, Carnitine O-palmitoyltransferase 2, mitochondrial (Homo sapiens, UniProt P23786); assay: (§1) SUPPLEMENTARY: Inhibition of Carnitine palmitoyltransferase 2
T2 sequence (P23786 whole entry): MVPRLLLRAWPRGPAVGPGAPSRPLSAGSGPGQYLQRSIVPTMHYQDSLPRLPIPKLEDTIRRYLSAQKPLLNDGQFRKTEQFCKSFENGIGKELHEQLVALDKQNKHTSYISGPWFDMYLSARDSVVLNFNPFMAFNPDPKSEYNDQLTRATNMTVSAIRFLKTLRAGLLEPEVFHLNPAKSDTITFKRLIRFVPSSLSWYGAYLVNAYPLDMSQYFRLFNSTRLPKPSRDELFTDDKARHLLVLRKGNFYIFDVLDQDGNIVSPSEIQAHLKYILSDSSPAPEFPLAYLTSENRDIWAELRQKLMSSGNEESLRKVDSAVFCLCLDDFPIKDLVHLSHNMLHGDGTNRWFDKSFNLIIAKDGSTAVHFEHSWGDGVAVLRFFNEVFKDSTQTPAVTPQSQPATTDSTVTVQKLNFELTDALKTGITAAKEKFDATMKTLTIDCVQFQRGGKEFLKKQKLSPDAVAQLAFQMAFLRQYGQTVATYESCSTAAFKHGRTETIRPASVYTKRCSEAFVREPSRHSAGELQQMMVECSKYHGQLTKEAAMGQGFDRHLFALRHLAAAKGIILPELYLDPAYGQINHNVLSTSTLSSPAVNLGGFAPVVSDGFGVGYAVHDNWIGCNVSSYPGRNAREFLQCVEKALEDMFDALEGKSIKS

[3] = target: T3, Carnitine O-palmitoyltransferase 2, mitochondrial (Rattus norvegicus, UniProt P18886); assay: as §1
T3 sequence (P18886 whole entry): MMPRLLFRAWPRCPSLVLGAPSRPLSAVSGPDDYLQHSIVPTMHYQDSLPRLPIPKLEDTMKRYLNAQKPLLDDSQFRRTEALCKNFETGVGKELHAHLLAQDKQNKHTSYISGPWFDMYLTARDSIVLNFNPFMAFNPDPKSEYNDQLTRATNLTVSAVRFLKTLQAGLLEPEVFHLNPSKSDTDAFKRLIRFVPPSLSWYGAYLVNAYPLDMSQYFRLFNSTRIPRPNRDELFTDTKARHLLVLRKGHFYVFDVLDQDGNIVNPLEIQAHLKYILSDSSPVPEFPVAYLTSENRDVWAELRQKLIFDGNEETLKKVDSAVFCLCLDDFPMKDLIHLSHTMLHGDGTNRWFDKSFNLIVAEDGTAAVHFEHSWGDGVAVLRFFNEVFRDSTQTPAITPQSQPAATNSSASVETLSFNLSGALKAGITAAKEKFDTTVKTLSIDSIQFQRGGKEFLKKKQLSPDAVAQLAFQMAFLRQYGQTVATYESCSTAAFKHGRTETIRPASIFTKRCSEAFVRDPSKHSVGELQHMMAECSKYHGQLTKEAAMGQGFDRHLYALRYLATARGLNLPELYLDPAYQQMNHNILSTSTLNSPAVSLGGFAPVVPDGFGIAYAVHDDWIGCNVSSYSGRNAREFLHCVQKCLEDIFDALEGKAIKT

[4] = target: T4, Carnitine O-palmitoyltransferase 1, liver isoform (Homo sapiens, UniProt P50416); assay: (§2) SUPPLEMENTARY: Inhibition of Carnitine palmitoyltransferase 1, liver isoform
T4 sequence (P50416 whole entry): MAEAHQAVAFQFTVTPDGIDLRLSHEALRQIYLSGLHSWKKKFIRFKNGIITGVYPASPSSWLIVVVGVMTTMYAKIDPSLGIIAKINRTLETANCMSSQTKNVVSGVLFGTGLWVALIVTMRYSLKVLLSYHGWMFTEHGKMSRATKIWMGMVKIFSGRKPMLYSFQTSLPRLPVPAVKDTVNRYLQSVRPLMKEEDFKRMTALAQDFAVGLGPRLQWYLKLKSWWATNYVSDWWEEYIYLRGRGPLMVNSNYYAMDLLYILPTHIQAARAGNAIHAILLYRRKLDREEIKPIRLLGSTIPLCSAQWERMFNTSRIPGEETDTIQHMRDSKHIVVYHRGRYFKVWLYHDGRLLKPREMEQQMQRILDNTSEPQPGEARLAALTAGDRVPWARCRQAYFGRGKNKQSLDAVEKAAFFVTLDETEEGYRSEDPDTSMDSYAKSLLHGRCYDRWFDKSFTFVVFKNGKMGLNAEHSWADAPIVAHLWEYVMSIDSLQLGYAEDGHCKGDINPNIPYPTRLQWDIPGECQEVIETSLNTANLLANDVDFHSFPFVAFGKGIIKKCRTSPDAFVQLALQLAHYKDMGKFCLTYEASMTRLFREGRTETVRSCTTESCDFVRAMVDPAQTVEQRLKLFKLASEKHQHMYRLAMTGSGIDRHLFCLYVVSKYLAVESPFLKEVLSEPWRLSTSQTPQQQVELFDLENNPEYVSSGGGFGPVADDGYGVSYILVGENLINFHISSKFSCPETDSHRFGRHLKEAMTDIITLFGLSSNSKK

[5] = target: T5, Carnitine O-palmitoyltransferase 1, liver isoform (Rattus norvegicus, UniProt P32198); assay: as §2
T5 sequence (P32198 whole entry): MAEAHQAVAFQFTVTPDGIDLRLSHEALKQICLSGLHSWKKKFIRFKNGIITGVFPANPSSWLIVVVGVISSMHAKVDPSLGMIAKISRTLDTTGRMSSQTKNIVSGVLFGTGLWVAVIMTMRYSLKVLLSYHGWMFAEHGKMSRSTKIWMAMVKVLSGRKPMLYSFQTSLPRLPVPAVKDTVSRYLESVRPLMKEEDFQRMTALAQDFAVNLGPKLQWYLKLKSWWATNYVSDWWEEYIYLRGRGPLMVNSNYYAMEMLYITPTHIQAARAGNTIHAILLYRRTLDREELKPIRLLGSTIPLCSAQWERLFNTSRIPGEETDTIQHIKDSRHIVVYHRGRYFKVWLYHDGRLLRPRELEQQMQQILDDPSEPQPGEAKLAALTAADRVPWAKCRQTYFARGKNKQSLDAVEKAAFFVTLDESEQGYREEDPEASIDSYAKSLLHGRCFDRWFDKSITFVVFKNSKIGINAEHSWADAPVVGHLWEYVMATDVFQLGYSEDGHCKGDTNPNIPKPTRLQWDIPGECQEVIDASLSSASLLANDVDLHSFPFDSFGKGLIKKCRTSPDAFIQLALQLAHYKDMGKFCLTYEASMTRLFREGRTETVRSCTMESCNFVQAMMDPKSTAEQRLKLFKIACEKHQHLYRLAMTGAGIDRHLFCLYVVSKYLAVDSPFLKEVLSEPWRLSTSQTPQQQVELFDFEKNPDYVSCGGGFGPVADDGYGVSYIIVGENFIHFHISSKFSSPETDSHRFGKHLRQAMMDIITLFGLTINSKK

SMILES	IC50 [1]	IC50 [2]	IC50 [3]	IC50 [4]	IC50 [5]
COc1ccc(Cl)cc1S(=O)(=O)N(CCC(=O)O)c1cc(C(=O)Nc2ccccc2)cc2c1OCO2	2810 nM	> 100000 nM	> 100000 nM	175 nM	1720 nM
COc1ccc(Cl)cc1S(=O)(=O)N1CCCc2ccc(NC(=O)c3ccc(CC(=O)O)cc3)cc21	1820 nM	> 100000 nM	> 100000 nM	388 nM	658 nM
COc1ccc(Cl)cc1S(=O)(=O)N1CCSc2ccc(C(=O)Nc3ccc(C(=O)O)c(Cl)c3)cc21	1520 nM	4360 nM	10600 nM	87.4 nM	124 nM
COc1ccc(Cl)cc1S(=O)(=O)N(C)c1cc(C(=O)Nc2ccc(CC(=O)O)cc2)cc2c1OCO2	857 nM	> 100000 nM	> 100000 nM	391 nM	362 nM
CCCN(c1cc(C(=O)Nc2ccn(CC(=O)O)n2)cc2c1OCO2)S(=O)(=O)c1cc(Cl)ccc1OC	1760 nM	> 100000 nM	> 100000 nM	324 nM	252 nM
COc1ccc(Cl)cc1S(=O)(=O)N(c1cc(C(=O)Nc2ccn(CC(=O)O)n2)cc2c1OCO2)C(C)C	5280 nM	> 100000 nM	> 100000 nM	1070 nM	6020 nM
COCCN(c1cc(C(=O)Nc2ncc(CC(=O)O)s2)cc2c1OCO2)S(=O)(=O)c1cc(Cl)ccc1OC	914 nM	> 100000 nM	> 100000 nM	315 nM	157 nM
O=C(NCc1ccc(-c2nnn[nH]2)cc1)c1nn(Cc2ccc(OC(F)F)cc2)c2ccc(F)cc12	8510 nM	> 100000 nM	> 100000 nM	221 nM	394 nM
COc1ccc(Cl)cc1S(=O)(=O)N(c1cc(C(=O)Nc2ccc(CC(=O)O)cc2)cc2c1OCO2)C(C)C	598 nM	52200 nM	> 100000 nM	890 nM	1090 nM
CCN(c1cc(C(=O)Nc2ccc(CC(=O)O)cc2)cc2c1OCO2)S(=O)(=O)c1cc(Cl)ccc1OC	2800 nM	37700 nM	> 100000 nM	285 nM	350 nM

Second part, the compound after the results:

IC50 [1]	IC50 [2]	IC50 [3]	IC50 [4]	IC50 [5]	SMILES
> 100000 nM	193 nM	643 nM	103 nM	72.7 nM	O=C([C@H]1CCCCN1C(=O)COc1ccccc1)N1Cc2ccc(OC3CCOCC3)cc2C1
17800 nM	44800 nM	> 100000 nM	503 nM	1050 nM	O=C(COc1ccccc1)OCc1cc(-c2nc([C@H]3CCCCN3C(=O)COc3ccccc3)cs2)ccn1
2290 nM	2380 nM	6580 nM	214 nM	361 nM	O=C(COc1ccccc1)NS(=O)(=O)Cc1ccc(-c2nc([C@H]3CCCCN3C(=O)COc3ccccc3)cs2)cc1
16900 nM	> 100000 nM	> 100000 nM	40.2 nM	14.6 nM	COc1ccc(Cl)cc1S(=O)(=O)N1C[C@@H](C(=O)O)Oc2ccc(C(=O)Nc3ccccc3)cc21
	80000 nM	90700 nM	325 nM	759 nM	Nc1ccc(-c2n[nH]c([C@H]3CCCCN3C(=O)COc3ccccc3)n2)cn1
> 100000 nM	> 100000 nM	> 100000 nM	172 nM	102 nM	COc1ccc(Cl)cc1S(=O)(=O)c1n[nH]c2ccc(C(=O)Nc3ccccc3)cc12
> 100000 nM	16200 nM	> 100000 nM	75.7 nM	386 nM	O=C1CCC(=O)N1c1cc(F)cc(-c2noc([C@H]3CCCCN3C(=O)COc3ccccc3)n2)c1
7310 nM	> 100000 nM	> 100000 nM	130 nM	72.2 nM	O=C(COc1ccccc1)N1CCCC[C@@H]1C#Cc1ccc2[nH]cnc2c1
> 100000 nM	17400 nM	> 100000 nM	123 nM	607 nM	CS(=O)(=O)c1ccc(-n2nnc([C@H]3CCCCN3C(=O)COc3ccccc3)n2)cc1
> 100000 nM	1560 nM	2610 nM	167 nM	322 nM	O=C([C@H]1CCCCN1C(=O)COc1ccccc1)N1CCN(c2ncccn2)CC1
> 100000 nM	551 nM	1330 nM	118 nM	35.7 nM	O=C([C@H]1CCCCN1C(=O)COc1ccccc1)N1Cc2ccc(O[C@H]3CCOC3)cc2C1
